# According to patent US11084826B2, “RSV antiviral pyrazolo- and triazolo-pyrimidine compounds” (Janssen Sciences Ireland Unlimited Company, priority 2015, dated 2021):
# Where “and” joins values, the source holds several entries; their conditions need not be identical. Identical values can stand only once.
# Test system: rgRSV224 virus
# Assay: Antiviral activity: inhibition of rgRSV224 (GFP-expressing RSV) replication in HeLa cells, GFP expression read-out
# Type: cell-based, respiratory syncytial virus (RSV)
# Settings: human respiratory syncytial virus, HeLa, read-out: RSV HELA pEC50, rgRSV224 virus (MOI=1) in HeLa cells, GFP read-out (converted)
# How it was run: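 HeLa cells (3,000/well) were infected with GFP-expressing rgRSV224 (MOI=1) in the presence of 9 serial 4-fold compound dilutions (0.05% DMSO) and incubated at 37° C, 5% CO2. After three days, GFP expression was measured by laser microscopy. EC50 is the concentration giving 50% inhibition of GFP expression.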
row,Structure (SMILES),EC50
1,CCc1cc(C(=O)N2CCCCC[C@H]2C)nc2cc(-c3ccc(N4CCC(CO)(C(=O)O)C4)cc3F)nn12 (stereo partly drawn) [Compound W18],81.3 nM
2,C[C@@H]1c2ccccc2CCN1C(=O)c1cc(C2(C)CC2)n2nc(-c3ccc(-n4cc(C(=O)O)cn4)cc3F)cc2n1 [Compound W26],23.4 nM
3,CCc1cc(C(=O)N2CCc3ccccc3[C@H]2C)nc2cc(-c3ccc(-n4cc(C(=O)O)cn4)cc3F)nn12 [Compound W27],39.8 nM
4,CCc1cc(C(=O)N2CCc3ccccc3[C@H]2C)nc2cc(-c3ccc(N4CC[C@H](C(=O)O)C4)cc3F)nn12 [Compound W28],4.27 nM
5,CCc1cc(C(=O)N2CCCCCN2C)nc2cc(-c3ccc(-n4cc(C(=O)O)cn4)cc3F)nn12 [Compound W32],219 nM
6,C[C@@H]1c2ccccc2CCN1C(=O)c1cc(C2CC2)n2nc(-c3ccc(-n4cc(C(=O)O)cn4)cc3F)cc2n1 [Compound W33],16.2 nM
7,C[C@@H]1c2ccccc2CCN1C(=O)c1cc(C2(C)CC2)n2nc(-c3ccc(N4CC[C@H](C(=O)O)C4)cc3F)cc2n1 [Compound W34],11.2 nM
8,CCc1cc(C(=O)N2CCCCC[C@H]2C)nc2cc(-c3ccc(-n4cc(C(=O)O)c(Cl)n4)cc3F)nn12 [Compound W35],191 nM
9,C[C@@H]1c2ccccc2CCN1C(=O)c1cc(C2CC2)n2nc(-c3ccc(N4CC[C@H](C(=O)O)C4)cc3F)cc2n1 [Compound W38],5.75 nM
10,CC1c2ccsc2CCN1C(=O)c1cc(C2CC2)n2nc(-c3ccc(-n4cc(C(=O)O)cn4)cc3F)cc2n1 (stereo not drawn) [Compound W41],13.2 nM
11,CCc1cc(C(=O)N2CCCCC[C@H]2C)nc2cc(-c3ccc(N4CC[C@](C)(C(=O)O)C4)cc3F)nn12 [Compound W49],43.7 nM
12,CCc1cc(C(=O)N2CCCCC[C@H]2C)nc2cc(-c3ccc(N4CC[C@@](C)(C(=O)O)C4)cc3F)nn12 [Compound W50],44.7 nM
13,C[C@@H]1CCCCCN1C(=O)c1cc(C2CC2)n2nc(-c3ccc(N4CC[C@H](C(=O)O)C4)cc3F)cc2n1 [Compound W51],38.9 nM

# Same assay, conditions: rgRSV224 virus (MOI=1) in HeLa cells, GFP read-out
row,Structure (SMILES),RSV HELA pEC50
1,CCc1cc(C(=O)N2CCCCCC2C)nc2cc(-c3ccc(N(C)C)cc3)nn12 (stereo not drawn) [Compound A2],5.52
2,CCc1cc(C(=O)N2CCCCCC2C)nc2cc(-c3ccccc3Cl)nn12 (stereo not drawn) [Compound A3],5.45
3,CCc1cc(C(=O)N2CCCCCC2C)nc2cc(-c3ccc4[nH]c(=O)ccc4c3)nn12 (stereo not drawn) [Compound A15],6.47
4,CCCC(C)N(CC)C(=O)c1cc(CC)n2nc(-c3ccccc3F)cc2n1 (stereo not drawn) [Compound A16],5.57
5,CC1CCCCCN1C(=O)c1cc(N2CCCC2)n2nc(-c3ccc(N(C)C)cc3)cc2n1 (stereo not drawn) [Compound A19],5.34
6,CCc1cc(C(=O)N2CCc3ccccc3C2C)nc2cc(-c3cc4cccnc4cc3F)nn12 (stereo not drawn) [Compound A31],6.20
7,CCc1cc(C(=O)N2CCCCCC2C)nc2cc(-c3ccc(NC(=O)OCC4CCCN4)cc3F)nn12 (stereo not drawn) [Compound C3],6.78 and 6.55
8,CCc1cc(C(=O)N2CCCCC[C@H]2C)nc2cc(-c3ccc(-c4nc(C(=O)O)ccc4F)cc3F)nn12 [Compound F20],7.07
9,C[C@@H]1CCCCCN1C(=O)c1cc(C2CC2)n2nc(-c3ccc(-c4ccc(C(=O)O)cn4)cc3F)cc2n1 [Compound F21],7.28
10,CCc1cc(C(=O)N2CCc3ccccc3[C@H]2C)nc2cc(-c3ccc4cc(C(=O)O)ccc4c3F)nn12 [Compound F34],7.46
11,CCc1cc(C(=O)N2CCCCC[C@H]2C)nc2cc(-c3ccc4c(c3F)OCC(C(=O)O)C4)nn12 (stereo partly drawn) [Compound F42],7.16
12,CCc1cc(C(=O)N2CCCCC[C@H]2C)nc2cc(-c3ccc4oc(C(=O)O)cc4c3F)nn12 [Compound F44],6.40

# Test system: not listed separately
# Assay: Cytotoxicity in HeLa cells, ATP content measured with the ATPlite kit
# Type: cell-based
# Settings: human, TOX HELA pCC50
row,Structure (SMILES),CC50 at 3 days
1,CCc1cc(C(=O)N2CCCCC[C@H]2C)nc2cc(-c3ccc(N4CCC(CO)(C(=O)O)C4)cc3F)nn12 (stereo partly drawn) [Compound W18],> 100000 nM
2,C[C@@H]1c2ccccc2CCN1C(=O)c1cc(C2(C)CC2)n2nc(-c3ccc(-n4cc(C(=O)O)cn4)cc3F)cc2n1 [Compound W26],> 100000 nM
3,CCc1cc(C(=O)N2CCc3ccccc3[C@H]2C)nc2cc(-c3ccc(-n4cc(C(=O)O)cn4)cc3F)nn12 [Compound W27],46800 nM
4,CCc1cc(C(=O)N2CCc3ccccc3[C@H]2C)nc2cc(-c3ccc(N4CC[C@H](C(=O)O)C4)cc3F)nn12 [Compound W28],51300 nM
5,CCc1cc(C(=O)N2CCCCCN2C)nc2cc(-c3ccc(-n4cc(C(=O)O)cn4)cc3F)nn12 [Compound W32],> 100000 nM
6,C[C@@H]1c2ccccc2CCN1C(=O)c1cc(C2CC2)n2nc(-c3ccc(-n4cc(C(=O)O)cn4)cc3F)cc2n1 [Compound W33],57500 nM
7,C[C@@H]1c2ccccc2CCN1C(=O)c1cc(C2(C)CC2)n2nc(-c3ccc(N4CC[C@H](C(=O)O)C4)cc3F)cc2n1 [Compound W34],43700 nM
8,CCc1cc(C(=O)N2CCCCC[C@H]2C)nc2cc(-c3ccc(-n4cc(C(=O)O)c(Cl)n4)cc3F)nn12 [Compound W35],> 25100 nM
9,C[C@@H]1c2ccccc2CCN1C(=O)c1cc(C2CC2)n2nc(-c3ccc(N4CC[C@H](C(=O)O)C4)cc3F)cc2n1 [Compound W38],46800 nM
10,CC1c2ccsc2CCN1C(=O)c1cc(C2CC2)n2nc(-c3ccc(-n4cc(C(=O)O)cn4)cc3F)cc2n1 (stereo not drawn) [Compound W41],> 25100 nM
11,CCc1cc(C(=O)N2CCCCC[C@H]2C)nc2cc(-c3ccc(N4CC[C@](C)(C(=O)O)C4)cc3F)nn12 [Compound W49],53700 nM
12,CCc1cc(C(=O)N2CCCCC[C@H]2C)nc2cc(-c3ccc(N4CC[C@@](C)(C(=O)O)C4)cc3F)nn12 [Compound W50],74100 nM
13,C[C@@H]1CCCCCN1C(=O)c1cc(C2CC2)n2nc(-c3ccc(N4CC[C@H](C(=O)O)C4)cc3F)cc2n1 [Compound W51],69200 nM

# Test system: HeLa cells
# Assay: as above
# Type: cell-based
# Settings: not given
row,Structure (SMILES),TOX HELA pCC50
1,CCc1cc(C(=O)N2CCCCCC2C)nc2cc(-c3ccc(N(C)C)cc3)nn12 (stereo not drawn) [Compound A2],<4.60
2,CCc1cc(C(=O)N2CCCCCC2C)nc2cc(-c3ccccc3Cl)nn12 (stereo not drawn) [Compound A3],4.40
3,CCc1cc(C(=O)N2CCCCCC2C)nc2cc(-c3ccc4[nH]c(=O)ccc4c3)nn12 (stereo not drawn) [Compound A15],<4.60
4,CCCC(C)N(CC)C(=O)c1cc(CC)n2nc(-c3ccccc3F)cc2n1 (stereo not drawn) [Compound A16],4.45
5,CC1CCCCCN1C(=O)c1cc(N2CCCC2)n2nc(-c3ccc(N(C)C)cc3)cc2n1 (stereo not drawn) [Compound A19],4.42
6,CCc1cc(C(=O)N2CCc3ccccc3C2C)nc2cc(-c3cc4cccnc4cc3F)nn12 (stereo not drawn) [Compound A31],<4.60
7,CCc1cc(C(=O)N2CCCCC[C@H]2C)nc2cc(-c3ccc(-c4nc(C(=O)O)ccc4F)cc3F)nn12 [Compound F20],4.30
8,C[C@@H]1CCCCCN1C(=O)c1cc(C2CC2)n2nc(-c3ccc(-c4ccc(C(=O)O)cn4)cc3F)cc2n1 [Compound F21],4.37
9,CCc1cc(C(=O)N2CCc3ccccc3[C@H]2C)nc2cc(-c3ccc4cc(C(=O)O)ccc4c3F)nn12 [Compound F34],4.17
10,CCc1cc(C(=O)N2CCCCC[C@H]2C)nc2cc(-c3ccc4c(c3F)OCC(C(=O)O)C4)nn12 (stereo partly drawn) [Compound F42],<4
11,CCc1cc(C(=O)N2CCCCC[C@H]2C)nc2cc(-c3ccc4oc(C(=O)O)cc4c3F)nn12 [Compound F44],4.25

# Same assay, conditions: HeLa cells, cytotoxicity
row,Structure (SMILES),TOX HELA pCC50
1,CCc1cc(C(=O)N2CCCCCC2C)nc2cc(-c3ccc(NC(=O)OCC4CCCN4)cc3F)nn12 (stereo not drawn) [Compound C3],<4.60 and 4.89

# Test system: not given
# Assay: not given
# Settings: not given
row,Structure (SMILES),melting point
1,CCc1cc(C(=O)N2CCCCC[C@H]2C)nc2cc(-c3ccc(N4CCC(CO)(C(=O)O)C4)cc3F)nn12 (stereo partly drawn) [Compound W18],276.58 °C
2,C[C@@H]1c2ccccc2CCN1C(=O)c1cc(C2(C)CC2)n2nc(-c3ccc(-n4cc(C(=O)O)cn4)cc3F)cc2n1 [Compound W26],238.58 °C
3,CCc1cc(C(=O)N2CCc3ccccc3[C@H]2C)nc2cc(-c3ccc(-n4cc(C(=O)O)cn4)cc3F)nn12 [Compound W27],144.43 °C
4,CCc1cc(C(=O)N2CCc3ccccc3[C@H]2C)nc2cc(-c3ccc(N4CC[C@H](C(=O)O)C4)cc3F)nn12 [Compound W28],218.99 °C
5,CCc1cc(C(=O)N2CCCCCN2C)nc2cc(-c3ccc(-n4cc(C(=O)O)cn4)cc3F)nn12 [Compound W32],268.79 °C
6,C[C@@H]1c2ccccc2CCN1C(=O)c1cc(C2CC2)n2nc(-c3ccc(-n4cc(C(=O)O)cn4)cc3F)cc2n1 [Compound W33],257.75 °C
7,C[C@@H]1c2ccccc2CCN1C(=O)c1cc(C2(C)CC2)n2nc(-c3ccc(N4CC[C@H](C(=O)O)C4)cc3F)cc2n1 [Compound W34],162.08 °C
8,CCc1cc(C(=O)N2CCCCC[C@H]2C)nc2cc(-c3ccc(-n4cc(C(=O)O)c(Cl)n4)cc3F)nn12 [Compound W35],145.75 °C
9,C[C@@H]1c2ccccc2CCN1C(=O)c1cc(C2CC2)n2nc(-c3ccc(N4CC[C@H](C(=O)O)C4)cc3F)cc2n1 [Compound W38],214 °C
10,CC1c2ccsc2CCN1C(=O)c1cc(C2CC2)n2nc(-c3ccc(-n4cc(C(=O)O)cn4)cc3F)cc2n1 (stereo not drawn) [Compound W41],257.83 °C
11,CCc1cc(C(=O)N2CCCCC[C@H]2C)nc2cc(-c3ccc(N4CC[C@](C)(C(=O)O)C4)cc3F)nn12 [Compound W49],179.2 °C
12,CCc1cc(C(=O)N2CCCCC[C@H]2C)nc2cc(-c3ccc(N4CC[C@@](C)(C(=O)O)C4)cc3F)nn12 [Compound W50],110.2 °C
13,C[C@@H]1CCCCCN1C(=O)c1cc(C2CC2)n2nc(-c3ccc(N4CC[C@H](C(=O)O)C4)cc3F)cc2n1 [Compound W51],203.3 °C
